Experimental data taken from patent US5391751A, “2,2-dimethylchromene derivatives, process for their preparation and pharmaceutical compositions in which they are present” (priority 1987, dated 1995).

Columns and labels:
isolated rat portal vein = experiment: Isolated rat portal vein: inhibition of spontaneous contractile activities; parameters: species or system rat (male Sprague Dawley); conditions: 0.25 h, 37° C., 15 min per concentration
Description: Male Sprague Dawley rats (250-300 g) are stunned and then bled after their throats have been cut. The portal vein, ligated in situ at two points 15 mm apart, is isolated, cut longitudinally and then mounted vertically in an experimental cell containing a physiological solution, at 37° C., of the following composition (mmol/1): NaCl:137; KC1:5.4; MgCl2 :1.05; CaCl2 :[…]; NaH2 PO4 :12; NaHCO3 :[…]; glucose: 11.5, into which a mixture of gases containing 95% of oxygen and 5% of carbon dioxide is bubbled.
The vein is subjected to a tension of 500 mg. After a period of stabilization (about 1 h 30 min), the spontaneous contractile activities are recorded with the aid of an isometric sensor. Each measurement is performed successively on 4 preparations.
The results are expressed in the form of the molar concentrations which causes a 50 per cent inhibition of the spontaneous contractile activities (IC50).

[1] = test system: spontaneously hypertensive rats (SHR); experiment: Antihypertensive activity on vigilant spontaneously hypertensive rats (SHR); format: in vivo, rat (male SHR, Wistar strain)
Description: The experiment is performed on male SHR (of the Wistar strain) aged between 11 and 12 weeks; under pentobarbital anesthesia, a catheter is implanted in a carotid artery on the day before the experiment. In the experiment, the diastolic pressure (DP) and systolic pressure (SP) of the vigilant animals are recorded continuously 1 hour before and up to 2 hours after administration of the product. The heart rate (HR) is determined from the pulse pressure and recorded continuously for the same time.
The products were administered orally in a volume of 2 ml per 100 g of body weight after suspension in a 5% aqueous solution of gum arabic.

in vivo = format: in vivo; conditions: mouse, in vivo; mice, oral administration
[2] = test system: guinea-pig papillary muscle; experiment: Guinea-pig papillary muscle: ventricular action potential (microelectrode method); parameters: species or system guinea-pig (male Albino Charles River); conditions: for IC50: Cavia porcellus, 0.5 h, 36° C., 60 beats per minute, 30 minutes of perfusion per concentration, read-out: IC50: concentration which produces a 50 per cent reduction in the duration of the action potential
Description: Male Albino Charles River guinea-pigs (300-400 g) are stunned and then bled after their throats have been cut. The heart is isolated and opened and the right papillary muscle is excised and then kept alive in an experimental cell containing a physiological solution at 36° C. (composition described above).
The preparation is stimulated with the aid of a bipolar electrode connected to a stimulator (frequency =60 beats per minute). The ventricular action potential is measured by the conventional microelectrode method. The characteristic parameters were measured on the action potentials (AP) before and after the introduction of the test product at 3 successive increasing concentrations (30 minutes of perfusion per concentration). The concentration which produces a 50 per cent reduction in the duration of the AP is indicated (IC50).

mice = experiment: in vivo; format: in vivo; conditions: oral administration
vigilant dogs = experiment: Antiarrhythmic activity on vigilant dogs (acute infarction); format: in vivo, dog; conditions: orally, 0.03 mg/kg and 0.1 mg/kg
Description: The method used is the one described by Dupuis et al. (Br. J. Pharmacol., 1976, 58, p. 409), in which an acute infarction is caused by the insertion of a copper spiral into the coronary circulation, with the thorax closed off. The ECG is measured by telemetry and the extrasystoles are analyzed and counted automatically While the animal is being monitored by an internal television circuit. The products were administered orally to animals presenting at least 50 per cent of extrasystoles.

[3] = Overall comparison of activity, toxicity and therapeutic index with reference product; conditions: in the majority of the tests

**Q.** For `CC1(C)Oc2ccc([N+](=O)[O-])cc2[C@@H](n2ccccc2=O)[C@@H]1O` (relative stereo) [Product F, trans-4-(1,2-dihydro-2-oxopyrid-1-yl)-2,2-dimethyl-6-nitrochroman-3-ol], which IC50 (isolated rat portal vein) is on record?
**A.** 16 nM

**Q.** With `CC1(C)C=C(n2ccccc2=O)c2cc([N+](=O)[O-])ccc2O1` [SR 45509, 4-(1,2-Dihydro-2-oxopyrid-1-yl)-2,2-dimethyl-6-nitrochromene] as the compound, how does the IC50 (isolated rat portal vein) read?
**A.** 2.2 nM

**Q.** Which IC50 (isolated rat portal vein) does the source give for `CC(=O)c1ccc2c(c1)[C@@H](n1ccccc1=O)[C@H](O)C(C)(C)O2` (relative stereo) [Product G, trans-6-acetyl-4-(1,2-dihydro-2-oxopyrid-1-yl)-2,2-dimethylchroman-3-ol] here?
**A.** 190 nM

**Q.** With `CC(=O)c1ccc2c(c1)C(n1ccccc1=O)=CC(C)(C)O2` [SR 45510, 6-Acetyl-4-(1,2-dihydro-2-oxopyrid-1-yl)-2,2-dimethylchromene] as the compound, how does the IC50 (isolated rat portal vein) read?
**A.** 11 nM

**Q.** What does the source list for `CC1(C)C=C(n2ccccc2=O)c2cc(Cl)ccc2O1` [SR 45435, 6-Chloro-4-(1,2-dihydro-2-oxopyrid-1-yl)-2,2dimethylchromene]?
**A.** Duration of the effect ([1]; 0.20 mg/kg p.o.): > 120 min; Maximum decrease in mean blood pressure (± s.e.) ([1]; 0.20 mg/kg p.o.): 70 ± 8 mm of mercury; IC50 (isolated rat portal vein): 8 nM

**Q.** With `CC1(C)Oc2ccc(C#N)cc2[C@@H](N2CCCC2=O)[C@@H]1O` (relative stereo) [Product A, trans-6-cyano-4-(2-oxopyrrolidin-1-yl)-2,2-dimethyl-chroman-3-ol, reference compound] as the compound, how does the LD50 (in vivo) read?
**A.** 500 to 1000 mg/kg

**Q.** What about the IC50 [2] of the same compound?
**A.** 16000 nM

**Q.** What about the “Duration of the effect” value ([1]; 0.10 mg/kg p.o.) of the same compound?
**A.** 60 min

**Q.** What about the “Maximum decrease in mean blood pressure (± s.e.)” value (from here on “Maximum decrease”) ([1]; 0.10 mg/kg p.o.) of the same compound?
**A.** 30 ± 10 mm of mercury

**Q.** And the “Duration of the effect” value ([1]; 0.20 mg/kg p.o.)?
**A.** 90 min

**Q.** What about the “Maximum decrease” value ([1]; 0.20 mg/kg p.o.) of the same compound?
**A.** 56 ± 11 mm of mercury

**Q.** What about the IC50 (isolated rat portal vein) of the same compound?
**A.** 68 nM

**Q.** With `CC1(C)C=C(N2CCCC2=O)c2cc(C#N)ccc2O1` [Product B, 6-cyano-4-(2-oxopyrrolidin-1-yl)-2,2-dimethylchromene] as the compound, how does the IC50 (isolated rat portal vein) read?
**A.** 70 nM

**Q.** With `CC1(C)Oc2ccc(C#N)cc2[C@@H](n2ccccc2=O)[C@@H]1O` (relative stereo) [Product C, trans-6-cyano-4-(1,2-dihydro-2-oxopyrid-1-yl)-2,2-dimethylchroman-3-ol, reference compound] as the compound, how does the IC50 [2] read?
**A.** 20000 nM

**Q.** And the IC50 (isolated rat portal vein)?
**A.** 90 nM

**Q.** Which IC50 (isolated rat portal vein) does the source give for `CC1(C)Oc2ccc(Cl)cc2[C@@H](n2ccccc2=O)[C@@H]1O` (relative stereo) [Product E, trans-6-chloro-4-(1,2-dihydro-2-oxopyrid-1-yl)-2,2-dimethylchroman-3-ol] here?
**A.** 190 nM

**Q.** Which IC50 (isolated rat portal vein) does the source give for `CC1(C)Oc2ccc(Br)cc2[C@@H](n2ccccc2=O)[C@@H]1O` (relative stereo) [Product D, trans-6-bromo-4-(1,2-dihydro-2-oxopyrid-1-yl)-2,2-dimethylchroman-3-ol] here?
**A.** 250 nM

**Q.** For `CC1(C)C=C(n2ccccc2=O)c2cc(C#N)ccc2O1` [SR 44866, 6-Cyano-4-(1,2-dihydro-2-oxopyrid-1-yl)-2,2-dimethylchromene], which LD50 (in vivo) is on record?
**A.** 1000 mg/kg

**Q.** What about the LD0 (mice) of the same compound?
**A.** 500 mg/kg

**Q.** And the “Antiarrhythmic activity (reducing the number of extrasystoles or restoring a sinus rhythm)” value (vigilant dogs)?
**A.** substantial antiarrhythmic activity

**Q.** And the IC50 [2]?
**A.** 1500 nM

**Q.** What about the “Concentration producing 50 per cent reduction in action potential duration: times lower than that of product A” value ([2]; versus product A) of the same compound?
**A.** 10 times

**Q.** What about the “Duration of the effect” value ([1]; 0.02 mg/kg p.o.) of the same compound?
**A.** 90 min

**Q.** And the “Maximum decrease” value ([1]; 0.02 mg/kg p.o.)?
**A.** 34 ± 6 mm of mercury

**Q.** What about the “Duration of the effect” value ([1]; 0.03 mg/kg p.o.) of the same compound?
**A.** > 120 min

**Q.** And the “Maximum decrease” value ([1]; 0.03 mg/kg p.o.)?
**A.** 41 ± 6 mm of mercury

**Q.** And the “Activity relative to product A” value [3]?
**A.** about 10 times

**Q.** What about the IC50 (isolated rat portal vein) of the same compound?
**A.** 7.1 nM

**Q.** For `CC1(C)C=C(n2ccccc2=O)c2cc(Br)ccc2O1` [SR 45374, 6-Bromo-4-(1,2-dihydro-2-oxopyrid-l-yl)-2,2dimethylchromene], which “Duration of the effect” value ([1]; 0.10 mg/kg p.o.) is on record?
**A.** > 120 min

**Q.** What about the “Maximum decrease” value ([1]; 0.10 mg/kg p.o.) of the same compound?
**A.** 32 ± 6 mm of mercury

**Q.** What about the IC50 (isolated rat portal vein) of the same compound?
**A.** 7.9 nM
